We go through seven compounds from US4123456A, “Novel 11-hydroxy-9-keto-5,6-cis-13,14-cis-prostadienoic acid derivatives” (American Cyanamid Company, priority 1977, dated 1978).

In assay [1] the test system is ulcerogenic properties of indomethacin. The experiment in a line: protection against the ulcerogenic properties of indomethacin. It is filed as in vivo, Rats. The following applies: 2.5 or lower considered active. The protocol:
The compounds of this invention provide protection against the ulcerogenic properties of indomethacin. This assay was carried out in the following manner.
Rats were starved for 48 hours (water was given ad libitum). Indomethacin (20 mg./kg. of body weight) was administered by the subutaneous route and one-half the dose of the test compound was administered by gavage at the same time. After 3 hours, the second half of the test compound was administered also by Gavage. Five hours after the administration of indomethacin the animals were decapitated and the stomachs removed. The stomachs were washed with distilled water, blotted on gauze, cut along the larger curvature, and the contents rinsed with distilled water. The stomachs were spread out, pinned on a cork and visualized under magnifying glass for ulcers. The criteria for scoring of ulcers was as previously reported. [Abdel-Galil et al. Brit. J. Pharmac. Chemotherapy 33:1-14 (1968)].
1 Petechial hemmorhage or pin point ulcer
3 Many ulcers, a few large
4 Many ulcers, mainly large
Control animals treated with indomethacin but not test compound consistently give scores of about 3.0-3.5. Control animals treated with neither indomethacin nor test compound give scores of about 0.5-0.8. Compounds producing a score of 2.5 or lower are considered to be active.

For another assay, the system named is gastric acid secretion. The experiment in a line: gastric acid secretion inhibition, "Shay rat" procedure. The format is in vivo, rats (male, CFE strain). The note with it: intraduodenal dose 100 mg./kg. of body weight; 20% or more considered active. The protocol:
The novel compounds of the present invention are also effective inhibitors of gastric acid secretion and of ulcer development in experimental animals, and thus are potentially valuable as agents for the control of gastric acid secretion and of gastric erosion and an anti-ulcer agents. Gastric acid secretion inhibitory action is usually measured by the "Shay rat" procedure^(1,2) with some modifications as follows.
The rats (male, CFE strain) were starved for 48 hours (water was given ad libitum) to permit evacuation of stomach contents. On the morning of the experiment, under ether anesthesia, the abdominal region was shaved and a midline incision (1-1 1/2") was made with a scapel. […]
The abdominal cavity was exposed by cutting with scissors and the esophagus close to the stomach was clamped off with a hemostat, the stomach was removed by cutting above the hemostat (the esophagus was cut) and between the two sutures. […] The supernatant was collected, volume measured and recorded, 2 drops of a phenolphthalein indicator (1% in 95% ethanol) were added and the solution was titrated with 0.02N NaOH (or with 0.04N NaOH when large volumes of stomach contents were encountered) to pH 8.4 (because of usual coloring of the stomach contents, phenolphthalein was only used to permit visual indication that the end point was near) and the amount of acid present was calculated. […]

Setting [2] is: total oral dose 25 mg./kg., control score 3.2.

As for `CCCCCC(O)/C=C/[C@H]1CCC(=O)[C@@H]1CCCCCC(CC)C(=O)O` (relative stereo), the “Score, Treated” value in assay [1] (total oral dose 50 mg./kg., control score 3.0) came to 2.2.

On to `CCCCCC(O)/C=C/[C@H]1CCC(=O)[C@]1(C)CCCCCCC(=O)O` (relative stereo) [8β-methyl-9-oxo-15-hydroxy-13-trans-prostenoic acid], for which the “Score, Treated” value in assay [1] (total oral dose 12.5 mg./kg., control score 3.0) came to 2.0.

As for `CCCCC[C@@H](O)/C=C/[C@H]1CCC(=O)[C@@H]1CCCCSCC(=O)O` (relative stereo) [9-oxo-3-thia-15-epi-hydroxy-13-trans-prostenoic acid], in assay [1] (setting [2]), the “Score, Treated” value came out at 2.3.

Consider `CCCCCC(O)/C=C/[C@H]1CCC(=O)[C@@H]1CCCCC(C)(C)CC(=O)O` (relative stereo) [9-oxo-15-hydroxy-3,3-dimethyl-13-trans-prostenoic acid], for which the “Percent Inhibition of gastric acid secretion” value in the assay on gastric acid secretion is 51%.

With `CCCCCC(O)/C=C/[C@H]1CCC(=O)[C@@H]1CCCCSCC(=O)O` (relative stereo) [9-oxo-15-hydroxy-3-thia-13-trans-prostenoic acid], in assay [1] (setting [2]), the “Score, Treated” value is 1.8.

Turning to `CCCCCC(O)/C=C\[C@H]1CCC(=O)[C@@H]1CCCCCCC(=O)O` (relative stereo) [9-oxo-15-hydroxy-13-cis-prostenoic acid, 15-hydroxy-9-oxo-13-cis-prostenoic acid], the “Score, Treated” value in assay [1] (total oral dose 100 mg./kg., control score 3.0) is recorded as 1.3.

With `CCCCC(CC)C(O)/C=C/[C@H]1CCC(=O)[C@@H]1CCCCCCC(=O)O` (relative stereo) [9-oxo-15-hydroxy-16-ethyl-13-trans-prostenoic acid], the “Score, Treated” value in assay [1] (setting [2]) was determined as 1.7.
